pIC50, pKd, pKi: −log10 of the molar value. Values after ≈ are worked out from the molar mass of the structure shown. Like-named read-outs stand apart in the source and are kept apart here. Bounds are passed on as bounds.

One series addresses T1, TRPV1 expressing neurons (Rattus norvegicus, UniProt O35433).
T1 construct: Adult rats were terminally anaesthetized and decapitated; Dorsal root ganglia were removed; endogenous in cells; host or cells: primary cultured adult rat dorsal root ganglia neurons
The series is described as follows: Ca2+ fluorescence measurements in cultured dorsal root ganglia neurones. Type of series: cell-based. Here is the method: Adult rats were terminally anaesthetized and decapitated. […] The ganglia, placed in cold DMEM supplemented with 10% fetal bovine serum, 2 mM L-glutamine, 100 U/ml penicillin and 100 µg/ml streptomycin, were dissociated in single cells by several passages through a series of syringe needles (23G down to 25G). The medium and the ganglia were filtered to remove debris, topped up with 8 ml of DMEM medium and centrifuged (200 x g for 5 min). […] The cells were then washed twice with the Ca^2+ buffer solution and transferred to a chamber on the stage of a Nikon eclipse TE300 microscope. […] A calibration curve was set up using buffer containing Fura-2-AM-ester and determinant concentrations of free Ca^2+. This curve was then used to convert the data obtained from the F340/F380 ratio to [Ca^2+]¡ (nM).

Series [1] has as its target T2, TRPV1 expressed in rat spinal cord (Rattus norvegicus, UniProt O35433).
T2 construct: the spinal cord was removed and disrupted using a Polytron tissue homogenizer; from tissue; host or cells: rat spinal cord membranes
Description: Radioligand binding assay ([3H]-RTX, spinal cord membranes). The procedure:
Male Sprague-Dawley rats with body weight between 250 to 350 g at the time for testing were used. For binding assays rats were sacrificed by decapitation under anesthesia and the spinal cord was removed and disrupted using a Polytron tissue homogenizer in ice cold buffer containing 5 mM KCl, 5.8 mM NaCl, 0.75 mM CaCl2, 2 mM MgCl2, 320 mM sucrose, 10 mM Hepes, pH 8.6.^5 The homogenized tissue was centrifuged at 1000 x g for 10 min at 4°C and the supernatant was centrifuged again at 35000 x g for 30 min at 4°C (Beckman Avanti J25). The pellet was resuspended in the same buffer as described above and used in binding experiments. In saturation experiments, 150 µg protein/sample from membrane suspensions were incubated with [^3H]-Resiniferatoxin ([^3H]-RTX) (0.003-3 nM) in the assay buffer containing 0.25 mg/ml fatty acid-free bovine serum albumin at 37°C for 60 min. In competition experiments, the membranes were incubated at 37°C for 60 min with [^3H]RTX (0.4 nM) and with increasing concentrations (from 0.1 nM to 3 µM) of examined compounds.
Non specific binding was evaluated in the presence of 1 µM RTX. After incubation the reaction mixture was cooled at 0°C and incubated with bovine α1-acid glycoprotein (200 µg per tube) for 15 min to reduce non-specific RTX binding. Membrane-bound RTX was separated from free RTX by centrifuging the samples at 18500 x g for 15 min. The tip of the microcentrifuge tube containing the pellet was cut off and the radioactivity was determined by scintillation counting (Packard 2500 TR). Protein concentration was determined according to a Bio-Rad method with bovine serum albumin as a standard reference (Bradford, 1976). Saturation and competition studies were analyzed with the Ligand program.

Series [2] in a line: Body temperature measurements. Type of series: in vivo, rat. The settings on record: 30 µmol/kg orally; for body temperature change: monitored for more than 3 hours. The procedure: Rats were placed in individual cages at room temperature (22-25°C). Rectal temperatures were recorded from awake animals by repeated insertion of a lubricated rectal thermocouple probe (model-8402-00, Cole-Palmer Instrument Company) prior to and following orally administration of V405 at 30 µmil/kg.

A short description of series [3]: Thermodynamic solubility in PBS. Type of series: physicochemical. The settings on record: phosphate buffer pH 7.4, room temperature, stirring 36h, HPLC. The procedure: The standard solution was prepared by dissolving 1.4 mg of V405 in 10 mL of acetonitrile. A saturated solution of V405 was prepared by stirring 10 mL of phosphate buffer pH 7.4 in the presence of 10 mg of compound. The stirring was conducted at room temperature for 36h. The supernatant was filtered through a Millipore […] filter and 10 µL were used as sample for the HPLC determination. (Eluents: A = Water with 0.1% TFA, B = Acetonitrile + 0.1% TFA, Gradient: 0-100% B in 25 min, Column: SYMMETRY 300 C18 5 µM; 4,6 X 150 MM, […]). The solubility was determined by the following relationship: C'= percent area' C/percent area where C= concentration of standard solution (mg/ml), percent area': area of the peak of standard solution, percent area: area of the peak of saturated solution, C'= concentration of the saturated solution. The solubility was then expressed as […].

The test system of series [4] is six of the major human liver cytochromes P450 (CYP) enzymes. The series is described as follows: Cytochrome P450 inhibition, whole panel (qualitative statement). Type of series: in vitro ADME. The settings on record: panel of six CYPs, each concentration tested (0.1-10 µM). Here is the method:
(§1) A microtiter plate-based, direct, fluorometric assay was performed to analyze V405 inhibition potential of activities catalyzed by six of the major human liver cytochromes P450 (CYP) enzymes: CYP1A2, CYP2C9, CYP2C19, CYP2D6, CYP2E1 and CYP3A4. The six cytochrome P450 subtypes inhibition was tested from 0.1 µM to10 µM.
(§2) Four dilution points were evaluated (10 µM, 2.15 µM, 0.46 µM and 0.1 µM). A lid was placed on the plate and plate was placed at 37°C in a plate incubator for at least 10 minutes (to pre-warm the buffer and the plate). The reaction started when 0.1 mL enzyme/substrate solution mix was added to test wells. The plate was mixed and the reaction was continued incubating the lid-covered plate at 37°C for the desired time.
(§3) A stop solution was then added to all wells. and an enzyme/substrate mix was dispensed to the inverted blank wells (negative controls).
(§4) >The IC50 was calculated with a typical logistic curve fitting : % Inib = (Min-Max)/(1 + ((Conc)/(IC50)())^p) + Max [formula]

Series [5] in a line: Capsaicin-induced secondary allodynia. Type of series: in vivo, rat. The settings on record: 30 µmol/kg orally 2 hours prior to capsaicin (5 nmols/50 µl/paw); 30 min after capsaicin challenge. The procedure:
Capsaicin (5 nmols/50 µl/paw) was injected in the plantar surface of the glabrous skin of the right paw of rats anesthetized with diethyl ether (Chaplan et al., 1994). Compound V405 was orally administrated (30 µmol/kg) 2 hours prior to capsaicin injection. Tactile allodynia was evaluated 30 min after capsaicin challenge.

A further series deals with CYP2C9 (Homo sapiens, UniProt P11712). The series is described as follows: Fluorometric cytochrome P450 inhibition assay. Type of series: in vitro ADME. The settings on record: tested from 0.1 µM to 10 µM, 37°C, read-out: Cytochrome P450 subtypes µM inhibition (estimated IC50) CYP2C9. Here is the method: as §1, §2, §3, §4
Another series concerns the target CYP3A4 (Homo sapiens, UniProt P08684). Description: Fluorometric cytochrome P450 inhibition assay. Type of series: in vitro ADME. The settings on record: tested from 0.1 µM to 10 µM, 37°C, read-out: Cytochrome P450 subtypes µM inhibition (estimated IC50) CYP3A4. The procedure: as §1, §2, §3, §4
The target in another series is CYP2D6 (Homo sapiens, UniProt P10635). The series is described as follows: Fluorometric cytochrome P450 inhibition assay. Type of series: in vitro ADME. The settings on record: tested from 0.1 µM to 10 µM, 37°C, read-out: Cytochrome P450 subtypes µM inhibition (estimated IC50) CYP2D6. The procedure: as §1, §2, §3, §4
Another series concerns the target T3, CYP1A2 (Homo sapiens, UniProt P05177).
T3 sequence (P05177 1-516): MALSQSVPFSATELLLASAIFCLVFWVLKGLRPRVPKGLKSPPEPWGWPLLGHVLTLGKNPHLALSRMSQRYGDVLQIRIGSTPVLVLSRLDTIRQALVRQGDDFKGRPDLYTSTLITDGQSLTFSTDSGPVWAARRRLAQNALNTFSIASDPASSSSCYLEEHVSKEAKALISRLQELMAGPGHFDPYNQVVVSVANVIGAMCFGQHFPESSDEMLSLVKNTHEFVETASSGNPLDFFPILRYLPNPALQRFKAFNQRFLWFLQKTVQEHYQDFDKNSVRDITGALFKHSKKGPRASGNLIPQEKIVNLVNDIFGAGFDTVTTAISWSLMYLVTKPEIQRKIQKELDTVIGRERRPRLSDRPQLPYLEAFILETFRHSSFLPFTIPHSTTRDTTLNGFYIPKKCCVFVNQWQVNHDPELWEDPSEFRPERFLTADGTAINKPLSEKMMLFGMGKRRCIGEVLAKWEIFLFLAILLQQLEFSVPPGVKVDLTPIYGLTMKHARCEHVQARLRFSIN
The series is described as follows: Fluorometric cytochrome P450 inhibition assay. Type of series: in vitro ADME. The settings on record: tested from 0.1 µM to 10 µM, 37°C, read-out: Cytochrome P450 subtypes µM inhibition (estimated IC50) CYP1A2. The procedure: as §1, §2, §3, §4

Another series has as its target CYP2E1 (Homo sapiens, UniProt P05181). Description: Fluorometric cytochrome P450 inhibition assay. Type of series: in vitro ADME. The settings on record: tested from 0.1 µM to 10 µM, 37°C, read-out: Cytochrome P450 subtypes µM inhibition (estimated IC50) CYP2E1. The procedure:
as §1, §2, §3, §4

The next series concerns the target CYP2C19 (Homo sapiens, UniProt P33261). The series is described as follows: Fluorometric cytochrome P450 inhibition assay. Type of series: in vitro ADME. The settings on record: tested from 0.1 µM to 10 µM, 37°C, read-out: Cytochrome P450 subtypes µM inhibition (estimated IC50) CYP2C19. Here is the method: as §1, §2, §3, §4
[6] abbreviates: 0.1 µM capsaicin; mean and 95% fiducial limits; read-out: IC50 of inhibition of capsaicin-evoked [Ca2+]i mobilization.

T2 sequence (O35433 whole entry): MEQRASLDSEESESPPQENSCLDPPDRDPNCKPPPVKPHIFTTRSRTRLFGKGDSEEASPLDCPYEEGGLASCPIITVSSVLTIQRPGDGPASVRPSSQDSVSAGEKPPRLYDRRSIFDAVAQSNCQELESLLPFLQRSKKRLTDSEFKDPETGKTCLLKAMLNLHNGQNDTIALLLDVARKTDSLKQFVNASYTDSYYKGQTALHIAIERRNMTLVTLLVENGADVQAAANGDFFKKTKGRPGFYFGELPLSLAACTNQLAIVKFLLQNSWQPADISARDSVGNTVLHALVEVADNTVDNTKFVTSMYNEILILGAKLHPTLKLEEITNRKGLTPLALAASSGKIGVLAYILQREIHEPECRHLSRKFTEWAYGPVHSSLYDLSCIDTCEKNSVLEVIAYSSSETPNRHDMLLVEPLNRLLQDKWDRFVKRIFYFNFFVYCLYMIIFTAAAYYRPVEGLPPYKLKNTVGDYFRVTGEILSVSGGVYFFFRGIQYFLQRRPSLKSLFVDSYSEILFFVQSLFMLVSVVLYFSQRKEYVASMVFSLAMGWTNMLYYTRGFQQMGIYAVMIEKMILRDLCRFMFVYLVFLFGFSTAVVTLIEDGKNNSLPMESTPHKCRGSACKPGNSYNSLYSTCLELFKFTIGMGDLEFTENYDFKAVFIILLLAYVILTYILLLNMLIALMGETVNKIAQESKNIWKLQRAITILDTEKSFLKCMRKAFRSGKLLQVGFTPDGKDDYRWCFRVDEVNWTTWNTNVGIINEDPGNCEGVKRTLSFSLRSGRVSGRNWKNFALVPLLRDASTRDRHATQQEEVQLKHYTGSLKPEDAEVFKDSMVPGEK
T1 sequence (O35433 whole entry): as above
Chain of CYP2D6 (P10635 whole entry): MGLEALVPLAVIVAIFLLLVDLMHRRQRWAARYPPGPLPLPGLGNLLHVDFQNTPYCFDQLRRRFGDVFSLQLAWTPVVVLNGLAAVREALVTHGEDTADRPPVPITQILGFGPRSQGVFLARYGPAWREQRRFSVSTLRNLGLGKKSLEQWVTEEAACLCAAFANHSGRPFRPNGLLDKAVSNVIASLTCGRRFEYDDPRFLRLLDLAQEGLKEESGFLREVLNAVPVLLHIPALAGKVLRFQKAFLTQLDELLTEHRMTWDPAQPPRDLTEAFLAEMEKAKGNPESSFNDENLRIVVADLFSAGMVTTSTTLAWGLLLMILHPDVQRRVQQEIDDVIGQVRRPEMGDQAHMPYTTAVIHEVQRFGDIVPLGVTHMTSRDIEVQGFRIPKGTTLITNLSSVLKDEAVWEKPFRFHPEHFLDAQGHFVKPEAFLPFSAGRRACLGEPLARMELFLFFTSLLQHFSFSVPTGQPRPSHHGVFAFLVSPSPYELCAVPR
Chain of CYP2C19 (P33261 whole entry): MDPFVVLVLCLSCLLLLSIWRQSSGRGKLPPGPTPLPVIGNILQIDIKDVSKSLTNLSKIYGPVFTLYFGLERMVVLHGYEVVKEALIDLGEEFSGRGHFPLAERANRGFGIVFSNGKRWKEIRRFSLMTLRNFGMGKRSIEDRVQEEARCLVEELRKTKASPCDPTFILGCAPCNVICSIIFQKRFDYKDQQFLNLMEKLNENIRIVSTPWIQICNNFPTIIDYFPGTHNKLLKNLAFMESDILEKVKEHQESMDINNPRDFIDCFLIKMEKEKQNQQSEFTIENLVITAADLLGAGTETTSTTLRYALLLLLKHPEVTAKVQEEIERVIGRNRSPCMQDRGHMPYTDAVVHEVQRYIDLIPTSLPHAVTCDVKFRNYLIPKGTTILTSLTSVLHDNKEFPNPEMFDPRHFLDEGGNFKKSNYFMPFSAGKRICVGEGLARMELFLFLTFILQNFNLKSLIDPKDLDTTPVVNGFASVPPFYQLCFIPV
Chain of CYP2E1 (P05181 whole entry): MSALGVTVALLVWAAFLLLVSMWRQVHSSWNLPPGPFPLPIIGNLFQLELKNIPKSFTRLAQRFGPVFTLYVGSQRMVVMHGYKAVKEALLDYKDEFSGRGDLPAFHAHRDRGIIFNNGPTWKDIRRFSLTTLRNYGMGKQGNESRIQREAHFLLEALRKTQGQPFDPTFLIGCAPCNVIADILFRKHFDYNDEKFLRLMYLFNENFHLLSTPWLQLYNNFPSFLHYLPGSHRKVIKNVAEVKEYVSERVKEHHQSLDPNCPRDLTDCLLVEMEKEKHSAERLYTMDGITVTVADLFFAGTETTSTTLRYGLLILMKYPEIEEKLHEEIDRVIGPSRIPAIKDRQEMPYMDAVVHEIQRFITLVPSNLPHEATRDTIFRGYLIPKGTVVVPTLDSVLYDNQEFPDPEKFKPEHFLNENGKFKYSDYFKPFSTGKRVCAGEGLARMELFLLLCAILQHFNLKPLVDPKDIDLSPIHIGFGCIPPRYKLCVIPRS
Chain of CYP3A4 (P08684 whole entry): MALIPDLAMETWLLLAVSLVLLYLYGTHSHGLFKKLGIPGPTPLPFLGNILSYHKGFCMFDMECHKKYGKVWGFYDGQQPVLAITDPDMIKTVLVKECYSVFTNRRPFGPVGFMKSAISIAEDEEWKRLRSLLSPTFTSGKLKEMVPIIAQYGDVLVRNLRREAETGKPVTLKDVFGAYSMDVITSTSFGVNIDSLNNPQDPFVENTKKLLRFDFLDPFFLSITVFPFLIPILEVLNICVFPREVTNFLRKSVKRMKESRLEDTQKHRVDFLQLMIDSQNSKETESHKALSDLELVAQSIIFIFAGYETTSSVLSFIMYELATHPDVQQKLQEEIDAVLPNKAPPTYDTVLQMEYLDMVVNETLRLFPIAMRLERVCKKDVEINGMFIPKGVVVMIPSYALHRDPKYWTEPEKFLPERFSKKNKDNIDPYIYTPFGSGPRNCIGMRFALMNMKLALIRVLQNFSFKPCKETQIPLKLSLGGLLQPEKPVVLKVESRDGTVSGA
Chain of CYP2C9 (P11712 whole entry): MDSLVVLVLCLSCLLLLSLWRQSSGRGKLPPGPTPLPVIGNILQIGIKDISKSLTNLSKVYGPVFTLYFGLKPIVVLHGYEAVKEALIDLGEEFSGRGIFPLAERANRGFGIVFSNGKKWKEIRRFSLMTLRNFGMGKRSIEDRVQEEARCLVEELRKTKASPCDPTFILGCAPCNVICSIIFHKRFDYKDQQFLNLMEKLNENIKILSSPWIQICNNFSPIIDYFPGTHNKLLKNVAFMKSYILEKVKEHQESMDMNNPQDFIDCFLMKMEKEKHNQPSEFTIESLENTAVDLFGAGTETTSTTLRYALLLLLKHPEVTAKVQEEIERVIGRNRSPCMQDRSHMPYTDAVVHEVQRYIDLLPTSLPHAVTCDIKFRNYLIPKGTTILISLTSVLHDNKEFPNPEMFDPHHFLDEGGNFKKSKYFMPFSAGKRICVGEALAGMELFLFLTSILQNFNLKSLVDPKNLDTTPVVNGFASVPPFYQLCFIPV

On to `Oc1cc2c(cc1O)CN(C(=S)NCCc1ccc(Cl)cc1)CCC2` [capsazepine], for which the negative logarithm of the IC50 (pIC50) on TRPV1 expressing neurons (setting [6]) is 6.02.

For `C=C(C)[C@]12C[C@@H](C)[C@@]34O[C@](Cc5ccccc5)(O[C@@H]1[C@@H]3C=C(COC(=O)Cc1ccc(O)c(OC)c1)C[C@]1(O)C(=O)C(C)=C[C@@H]41)O2` [[^3H]-RTX, [^3H]-Resiniferatoxin], the pKd in series [1] (saturation curve, [3H]-RTX 0.003-3 nM, 37°C, 60 min, mean (95% limits)) is 9.68.

Turning to `O=C(Nc1ccc(Cl)cc1)c1ccc(-c2cccc3cnccc23)nc1` [non-oxidized homologous, N-(4-chlorophenyl)-6-(isoquinolin-5-yl)pyridine-3-carboxamide, reference compound], the “temperature increase (mean value) with respect to control animals” value in series [2] (during the whole experiment (more than 3 hours)) is “+0.5 °C”. Moreover, the Thermodynamic solubility entry in series [3] was “not soluble”.

Turning to `COc1cccc(NC(=O)/C=C/c2ccc(Cl)cc2)c1` [SB-366791, (E)-3-(4-chlorophenyl)-N-(3-methoxyphenyl)acrylamide], the negative logarithm of the IC50 (pIC50) at TRPV1 expressing neurons (setting [6]) is 8.06. The negative logarithm of the Ki (pKi) in [1] (competition with [3H]RTX (0.4 nM), 37°C, 60 min, read-out: Ki) was 7.44.

Turning to `O=C(Nc1ccc(Cl)cc1)c1ccc(-c2cccc3cnccc23)[n+]([O-])c1` [Example V405], at TRPV1 expressing neurons (read-out: IC50 of inhibition of capsaicin-evoked [Ca2+]i mobilization; 0.1 µM capsaicin; mean and 95% fiducial limits), the pIC50 is 7.82. For the same compound, the “interaction with the evaluated cytochromes” value in [4] was “does not interact”. For the same compound, the body temperature change result is recorded as “No significant temperature change” in series [2] and “does not cause thermal increase” in [2] (listed as compound 1). In addition, in series [1], the pKi is 6.69. Further, the solubility (thermodynamic) at 36 h worked out at 106.4 µM (≈ 40 µg/mL) in series [3] (2160 min) and 106 µM (≈ 39.8 µg/mL) in [3] (phosphate buffer, pH 7.4, aqueous buffer). Besides, the “preventive effect against the pro-allodinic effect of capsaicin” value in series [5] was 55%. The IC50 on CYP2C9, at CYP3A4, on CYP2D6, on CYP1A2, on CYP2E1 and at CYP2C19 was over 10 µM each time.

One may read the pIC50 as the negative decadic logarithm of the IC50, by convention in mol/L. As usually defined, the pKd is the Kd on a negative log10 scale, so that one unit is a factor of ten. Lower therefore signals a large Kd. As usually defined, the pKi is the negative decadic logarithm of the Ki, by convention in mol/L. In general, thermodynamic solubility refers to solubility found after equilibrating the solid with the medium. What is called IC50 is the concentration at which inhibition is half-maximal.

Values taken from EP2048133A1 (Pharmeste S.r.l., priority 2007, dated 2009).
